Our source for the TGI and GI50 values is PubChem BioAssay (NCI).

Experiment in all cases: inhibition of tumour cell growth, NCI panel, 48 h
Assay [1] deals with A549 NSCLC.
Assay [2] has as its system SF-539 CNS.
The subject of assay [3] is UO-31 renal.
Assay [4] deals with SW-620 colon.
The test system of assay [5] is NCI-H226 lung.
In assay [6] the test system is KM12 colon.
Assay [7] concerns A498 renal.
Assay [8] concerns LOX IMVI melanoma.

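Cultured in 96-well plates, cells were exposed to test compound for 48 hours across five concentrations. GI50: concentration for 50% inhibition of growth. TGI denotes the concentration required for complete inhibition of growth.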

Regarding `CN(C)c1ccc2c(c1)C(=O)N(OS(=O)(=O)c1ccc([N+](=O)[O-])cc1)C2=O`, the TGI in assay [1] is greater than 100 µM; in assay [2], 33.8 µM; in assay [3] it was 60.9 µM; in assay [4] it was 46.8 µM; in assay [5] it was greater than 100 µM; in assay [6], 75.5 µM. In assay [7], this compound had a TGI greater than 100 µM.
For `CCOc1ccccc1NC(=O)CCC(=O)OC`, the TGI is greater than 100 µM in assay [1]; greater than 31.6 µM in assay [8]; greater than 100 µM in assay [3]; greater than 60.5 µM in assay [4]; greater than 100 µM in assay [5]; greater than 100 µM in assay [6]. In assay [7], this compound registered a TGI greater than 100 µM.
In the case of `O=C(O)CN(c1ccccc1)S(=O)(=O)c1ccc(NC(=O)c2ccccc2)cc1`, the TGI in assay [1], in assay [8], in assay [2], in assay [3], in assay [4] and in assay [7] was greater than 100 µM each time.
For `N#C/C(=C\c1ccccc1O)C(N)=O`, the TGI in assay [1], in assay [8], in assay [2], in assay [3], in assay [4] and in assay [5] was greater than 100 µM throughout. Moreover, the TGI in assay [6] and in assay [7] was greater than 100 µM throughout.
Turning to `Cc1ccc(C(=O)O/N=C2/CCCC/C2=C\c2ccccc2)cc1`, the TGI was 39.3 µM in assay [1]; 44.2 µM in assay [8]; greater than 100 µM in assay [2]; 31.5 µM in assay [3]; greater than 100 µM in assay [4]; greater than 100 µM in assay [5]. In addition, the TGI in assay [6] is greater than 100 µM.
On to `CC1=CC2CC(C)=C(CC[C@]3(C)CC[C@H]([C@@H](C)C(=O)O)OO3)C(C)(C)C2CC1` (stereo not given in full), for which the TGI in assay [1] was 1.06 µM; in assay [8], 0.207 µM; in assay [2], 2.68 µM; in assay [3], 2.23 µM; in assay [4], 0.354 µM; in assay [5] it was 3.45 µM. Besides, the TGI stood at 0.316 µM in assay [6] and 3.14 µM in assay [7].
For `NNC(=S)N/N=C(\CCCC(=O)NCCc1ccccc1)CC(=O)c1ccccc1`, the TGI in assay [1], in assay [2], in assay [3], in assay [4], in assay [6] and in assay [7] was greater than 100 µM throughout.
For `O=C1OC(=O)c2c1c(-c1ccccc1)cn2-c1ccc(Cl)cc1`, the TGI in assay [1], in assay [8], in assay [2], in assay [3], in assay [4] and in assay [5] was greater than 100 µM throughout. Further, in assay [6], the TGI is greater than 100 µM.
Turning to `Cc1cccc(C(=O)c2cccc3ccccc23)c1C(=O)O`, the TGI in assay [1], in assay [8], in assay [2], in assay [3], in assay [4] and in assay [5] was greater than 100 µM in each case. This compound also yielded a TGI in assay [7] greater than 100 µM.
Regarding `COC(=O)Cc1cc(OC)c(OC)cc1Br`, the TGI in assay [1], in assay [3], in assay [4], in assay [5], in assay [6] and in assay [7] was greater than 100 µM each time.
Take `COc1cc2c(cc1O)C=NCC2`: the TGI in assay [1], in assay [2], in assay [3], in assay [4], in assay [5] and in assay [6] was greater than 100 µM throughout. This compound showed a TGI in assay [7] greater than 100 µM.
For `c1ccc(SC2(Sc3ccccc3)CCCC2)cc1`, the TGI in assay [1], in assay [8], in assay [2], in assay [3], in assay [4] and in assay [6] was greater than 100 µM in each case. Moreover, the TGI in assay [7] is greater than 100 µM.
Regarding `CCC1(C)NN=c2s/c(=C/c3ccc(OC)cc3)c(=O)n2N1` (stereo not given), the TGI in assay [1], in assay [8], in assay [2], in assay [3], in assay [4] and in assay [5] was greater than 100 µM each time. The compound further registered a TGI in assay [6] greater than 100 µM.
Regarding `CCC[CH2][Sn]([CH2]CCC)([O]C(=O)c1c(F)cccc1F)[O]C(=O)c1c(F)cccc1F`, the GI50 is 3.12 µM in assay [1]; 0.353 µM in assay [8]; 1.02 µM in assay [2]; 1.31 µM in assay [3]; 0.32 µM in assay [4]; 1.89 µM in assay [5]. In addition, the GI50 in assay [6] is 1.51 µM; in assay [7], 0.967 µM. For the same compound, the TGI worked out at 11 µM in assay [1]; 1.41 µM in assay [8]; 2.2 µM in assay [2]; 2.59 µM in assay [3]; 1.23 µM in assay [4]; 3.32 µM in assay [5]. In addition, the TGI in assay [6] was 2.83 µM; in assay [7] it was 2.16 µM.
As to `O=C(O)c1ccccc1Cc1ccco1`, the TGI in assay [1], in assay [2], in assay [3], in assay [4], in assay [5] and in assay [6] was greater than 100 µM throughout. Besides, in assay [7], the TGI was greater than 100 µM.
With `FC(F)(F)C1(Cl)C(c2ccccc2)=C1c1ccccc1`, the TGI in assay [1] amounted to 28.9 µM; in assay [8], 23.8 µM; in assay [2], 29.6 µM; in assay [3] it was 31.9 µM; in assay [4], 27 µM; in assay [5] it was 29.2 µM. The compound further returned a TGI in assay [6] of 29 µM.
